In publication PMC6522096, “Development and Evaluation of an ^18F-Radiolabeled Monocyclam Derivative for Imaging CXCR4 Expression” (Molecular Pharmaceutics, 2019):

Target: T1, CXCR4 (Homo sapiens, UniProt P61073)
T1 construct: full-length receptor overexpressed in U87.CD4.CXCR4 glioma cells
Assay: […]SDF-1 (CXCL12) displacement on U87.CD4.CXCR4 cells
Format: cell-based

T1 sequence (P61073 whole entry): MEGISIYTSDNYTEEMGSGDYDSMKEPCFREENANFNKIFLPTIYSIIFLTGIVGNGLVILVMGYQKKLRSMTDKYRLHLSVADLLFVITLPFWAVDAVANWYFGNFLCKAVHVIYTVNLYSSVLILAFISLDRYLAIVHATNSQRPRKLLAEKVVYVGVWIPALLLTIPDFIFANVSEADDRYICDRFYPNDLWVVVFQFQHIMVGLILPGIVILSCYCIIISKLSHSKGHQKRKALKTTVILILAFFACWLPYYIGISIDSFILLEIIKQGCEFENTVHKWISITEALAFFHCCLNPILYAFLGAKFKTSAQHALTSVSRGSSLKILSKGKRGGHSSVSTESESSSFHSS

| IC50 [nM] | Compound |
| --- | --- |
| 89.8 ± 3.5 | c1ccc(CNCc2ccc(CN3CCCNCCNCCCNCC3)cc2)nc1 [AMD3465] |
| 111 ± 4 | Fc1ccc(CNCCNCc2ccc(CN3CCCNCCNCCCNCC3)cc2)cc1 [compound 5, N^1-(4-((1,4,8,11-Tetraazacyclotetradecan-1-yl)methyl)benzyl)-N^2-(4-fluorobenzyl)ethane-1,2-diamine] |
